Experimental data: patent publication US7312358B2, “Pharmaceutically active sulfanilide derivatives” (Laboratoires Serono SA, priority 2000, dated 2007)

Biological target: T1, hOT receptor (Homo sapiens, UniProt P30559)
T1 construct: expressed in transfected cells; host or cells: HEK293EBNA cells (membranes)
T1 sequence (P30559 1-389): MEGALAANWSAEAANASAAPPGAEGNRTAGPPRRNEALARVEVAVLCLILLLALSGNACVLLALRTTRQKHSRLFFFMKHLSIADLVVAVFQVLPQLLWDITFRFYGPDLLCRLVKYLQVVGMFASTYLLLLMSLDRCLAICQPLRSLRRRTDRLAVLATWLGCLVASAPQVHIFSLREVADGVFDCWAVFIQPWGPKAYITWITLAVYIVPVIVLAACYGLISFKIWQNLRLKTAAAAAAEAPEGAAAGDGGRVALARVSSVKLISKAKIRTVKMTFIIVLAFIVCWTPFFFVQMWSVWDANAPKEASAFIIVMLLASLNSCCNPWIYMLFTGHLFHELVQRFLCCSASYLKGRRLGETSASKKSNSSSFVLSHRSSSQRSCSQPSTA
Test: In vitro competition binding assay on hOT receptor with scintillating proximity assay
Settings: membranes from HEK293EBNA cells expressing hOT receptor; radiolabel [125I]-OVTA; SPA; read-out: Binding Affinity Human OT-R Ki
Description: a) In Vitro Competition Binding Assay on hOT Receptor with Scintillating Proximity Assay (Pharmaceutical Manufacturing International, 1992, p. 49-53 by Cook, N. D. et al)
This assays allows to determine the affinity of the test compounds for the OT receptor. Membranes from HEK293EBNA cells expressing the hOT receptor were resuspended in buffer containing 50 mM Tris-HCl, pH 7.4, 5 mM MgCl2 and 0.1% BSA (w/v). The membranes (2-4 μg) were mixed with 0.1 mg wheat-germ aglutinin (WGA) SPA bead (type A) and 0.2 nM of the radiolabel [^125I]-OVTA (OVTA being […] and is an analogue of OT for competition binding experiments). Non-specific binding was determined in the presence of 1 μM Oxytocin. The total assay volume was 100 μl. The plates (Corning (D NBS plate) were incubated at room temperature for 30 min and counted on a Mibrobeta plate counter. The tests compounds were used in concentrations of 30 μM, 10 μM, 1 μM, 300 nM, 100 nM, 10 nM, 1 nM, 100 pM, 10 pM. The competition binding data were analysed using the iterative, nonlinear, curve-fitting program, “Prism”.
(§1) The binding affinities to the oxytocin receptor of the sulfanilide derivatives claimed in the formula I were assessed using the above described in vitro biological assay. The values refer to the binding affinity (IC50; μM) of the example compounds according to formula I to the Oxytocin receptor. From the values shown in Table 1 it can be derived that said test compounds according to formula I do show a significant binding to the oxytocin receptor.

SMILES | Ki
CCOc1ccc(S(=O)(=O)N(CC(=O)N2CCc3ccccc3C2)c2ccc(C)cc2)cc1 [N-[2-(3,4-Dihydro-1H-isoquinolin-2-yl)-2-oxo-ethyl]-4-ethoxy-N-p-tolyl-benzenesulfonamide] | 246 nM

Test system: not given
Test: not given
Settings: not given

SMILES | melting point
COc1ccc(S(=O)(=O)N(CC(=O)N/N=C/c2ccccc2O)c2ccc(Cl)cc2)cc1OC [Example 37, N-(4-chlorophenyl)-N-{2-[(2E)-2-(2-hydroxybenzylidene)hydrazino]-2-oxoethyl}-3,4-dimethoxybenzenesulfonamide] | 188 to 189 °C

Biological target: T2, ratOT-R (Rattus norvegicus, UniProt P70536)
T2 construct: expressed in transfected cells; host or cells: HEK/EBNA cells
T2 sequence (P70536 1-388): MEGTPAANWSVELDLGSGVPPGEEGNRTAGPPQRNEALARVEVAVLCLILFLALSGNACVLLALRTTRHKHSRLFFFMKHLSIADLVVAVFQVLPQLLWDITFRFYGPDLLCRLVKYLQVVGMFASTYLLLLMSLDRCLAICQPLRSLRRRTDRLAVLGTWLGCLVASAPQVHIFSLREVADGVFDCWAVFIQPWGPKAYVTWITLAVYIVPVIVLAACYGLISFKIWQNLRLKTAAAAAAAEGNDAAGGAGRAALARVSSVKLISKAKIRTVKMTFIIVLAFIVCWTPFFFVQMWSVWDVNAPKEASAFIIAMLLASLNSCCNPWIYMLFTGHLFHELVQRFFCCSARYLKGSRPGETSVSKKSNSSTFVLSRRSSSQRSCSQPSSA
Test: Inhibition of IP3 (inositol tri-phosphate)-synthesis in HEK/EBNA-OTR cells
Format: cell-based
Settings: [3H]-inositol, oxytocin 10 nM
Description: e) Functional Assay No. 2: Inhibition of IP3 (Inositol Tri-Phosphate)-Synthesis in HEK/EBNA-OTR Cells
This assay intends to show the inhibition of the OT/OT-R mediated IP3 synthesis—being necessary to cause uterine contractions—by using test compounds of formula (I).
Stimulation of the cells: IIEK/EBNA OTR(rat or human) cells were plated out into costar 12-well plates, and equilibrated for 15-24 h with [^3H]-inositol radiolabel in medium without inositol supplement, with 1% FCS (0.5 ml/well). 4 μCi/ml were used. After this, the medium containing the label was aspirated. Then was added DMEM (without FCS, inositol), 20 mM Hepes (4-(2-hydroxyethyl)-1-piperazine-ethane-sulphonic acid), 1 mg/ml BSA containing 10 mM LiCl (freshly prepared), for […] at 37° C. The agonist (i.e. oxytocin used at a concentration of 10 nM) and the antagonists (i.e. the tests compounds of formula (1) used in a concentration of 10 μM, 1 μM, 300 nM, 100 nM, 10 nM, 1 nM, 100 pM, 10 pM, 3 pM) were added for the time required (15-45 min), followed by aspiration of the medium. Due to the […] of the OT receptor, the radiolabeled inositol is phosphorylated to yield IP3, the amount of the radiolabeled IP3 may be determined through the ensuing work-up. The reaction was stopped with 1 ml STOP-solution (i.e. 0.4 M perchloric acid), and let sit for 5-10 min at Room Temperature. Then, 0.8 ml were transferred into tubes containing 0.4 ml of neutralizing solution (0.72 M KOH/0.6M KHCO3), and the tubes vortexed and kept in the cold at least for 2 h.
Separation of IP's: The samples were spun in a table top centrifuge at 3000-4000 rpm for 15 min. 1 ml of the supernatant was transferred to new tubes containing 2.5 ml H2O. Packed resin (0.8 ml) was equilibrated with 20 ml H2O, and the whole samples poured onto the chromatography columns, thus separating the mixture. To discard free inositol, two washes with 10 ml H2O were carried out.
Elution of total IP's: The elution was achieved using 3 ml 1M ammonium formate/0.1M formic acid. The eluant was collected in scintillation counting tubes, followed by addition of 7 ml of scintillation liquid. The amount of IP3 is determined by a scintillating counter.
The activities of the sulfanilide derivatives claimed in the formula I were assessed using the above described in vitro biological assay. The values refer to the capacity of the example compounds according to formula I to effectively antagonize oxytocin-induced IP3-synthesis mediated by the oxytocin receptor.

SMILES | IC50
O=C(CN(c1ccccc1)S(=O)(=O)c1ccccc1)N/N=C1\C(=O)Nc2ccccc21 [N-{2-oxo-2-[2-(2-oxo-1,2-dihydro-3H-indol-3-ylidene)hydrazino]ethyl}-N-phenylbenzenesulfonamide] | 300 nM
C/C(=N\NC(=O)CN(c1ccc(Br)cc1)S(=O)(=O)c1ccccc1)c1ccccc1O [drawing 168, N-(4-bromophenyl)-N-(2-{2-[1-(2-hydroxyphenyl)ethylidene]hydrazino}-2-oxoethyl)benzenesulfonamide] | 48 nM

Biological target: hV1a (Homo sapiens, UniProt P37288)
Sequence (P37288 whole entry): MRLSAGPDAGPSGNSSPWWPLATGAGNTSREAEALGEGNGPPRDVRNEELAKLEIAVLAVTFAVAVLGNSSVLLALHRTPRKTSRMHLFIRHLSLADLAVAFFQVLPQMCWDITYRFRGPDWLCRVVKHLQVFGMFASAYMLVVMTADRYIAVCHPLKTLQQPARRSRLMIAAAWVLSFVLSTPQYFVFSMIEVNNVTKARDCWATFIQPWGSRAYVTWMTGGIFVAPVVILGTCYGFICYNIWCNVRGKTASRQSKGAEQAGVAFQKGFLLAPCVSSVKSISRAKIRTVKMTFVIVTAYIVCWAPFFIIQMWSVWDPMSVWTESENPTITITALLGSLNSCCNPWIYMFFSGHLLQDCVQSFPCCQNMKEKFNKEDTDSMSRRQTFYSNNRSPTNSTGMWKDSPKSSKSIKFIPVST
Test: In vitro competition binding assay on hV1a receptor with scintillating proximity assay
Parameters: expressed in transfected cells; host or cells: CHO cells (membranes)
Settings: membranes from CHO cells expressing hV1a receptor; radiolabel [125I]-LVA; SPA; read-out: Binding Affinity Human V1a Ki
Description: b) In Vitro Competition Binding Assay on hV1a Receptor with Scintillating Proximity Assay
This assays allows to determine the affinity of the test compounds for the V1a receptor. Membranes from CHO cells expressing the hV1a receptor were resuspended in buffer containing 50 mM Tris-HCl, pH 7.4, 5 mM MgCl2 and 0.1% BSA (w/v). The membranes (5-10 μg) were mixed with 0.2 mg wheat-germ aglutinin (WGA) SPA bead (type A) and 0.03 nM of the radiolabel [^125I]-LVA (LVA being Linear Vasopressin Antagonist and is an analogue of AVP for competition binding experiments). Non-specific binding was determined in the presence of 1 μM AVP. The total assay volume was 100 μl. The plates (Corning 0 NBS plate) were incubated at room temperature for 2 hours and counted on a Mibrobeta plate counter. The tests compounds were used in concentrations of 30 μM, 10 μM, 1 μM, 300 nM, 100 nM, 10 nM, 1 nM, 100 pM, 10 pM. The competition binding data were analysed using the iterative, nonlinear, curve-fitting program, Graph pad “Prism”.
as §1, with “Via” for “oxytocin”, “HM)” for “μM)”, “V1a” for “Oxytocin”

SMILES | Ki
COc1ccc(N(CC(=O)Nc2ccc(C)cc2C)S(=O)(=O)c2ccc(OC)c(OC)c2)cc1 [2-[(3,4-Dimethoxy-benzenesulfonyl)-(4-methoxy-phenyl)amino]-N-(2,4-dimethyl-phenyl)-acetamide] | 135 nM
COc1ccc(N(CC(=O)NCCSc2ccccn2)S(=O)(=O)c2ccc(C)cc2)cc1 [2-[(4-Methoxy-phenyl)-(toluene-4-sulfonyl)-amino]-N-[2-(pyridin-2-ylsulfanyl)-ethyl]-acetamide] | 430 nM
COc1ccc(N(CC(=O)Nc2ccc(C)cc2C)S(=O)(=O)c2ccccc2)cc1 [2-[Benzenesulfonyl-(4-methoxy-phenyl)-amino]-N-(2,4-dimethyl-phenyl)-acetamide] | 45 nM
COc1ccc(S(=O)(=O)N(CC(=O)N/N=C/c2ccccc2O)c2ccc(Cl)cc2)cc1OC [Example 37, N-(4-chlorophenyl)-N-{2-[(2E)-2-(2-hydroxybenzylidene)hydrazino]-2-oxoethyl}-3,4-dimethoxybenzenesulfonamide] | 550 nM
Cc1ccc(N(CC(=O)NCC(O)c2ccccc2)S(=O)(=O)c2ccc(C)cc2)cc1 (stereo not drawn) [N-(2-Hydroxy-2-phenyl-ethyl)-2-[(toluene-4-sulfonyl)-p-tolyl-amino]-acetamide] | 370 nM
O=C(CN(c1cccc(Br)c1)S(=O)(=O)c1ccccc1)N/N=C/c1ccccc1O [N-(3-Bromo-phenyl)-N-(2-hydroxy-benzylidene-hydrazinocarbonylmethyl)-benzenesulfonamide] | 503 nM
O=C(CN(c1ccc(Br)cc1)S(=O)(=O)c1ccccc1)N1CCc2ccccc2C1 [N-(4-Bromo-phenyl)-N-[2-(3,4-dihydro-1H-isoquinolin-2-yl)-2-oxo-ethyl]-benzenesulfonamide] | 58 nM
O=C(CN(c1ccc(Cl)cc1)S(=O)(=O)c1ccccc1)N/N=C/c1ccccc1O [N-(4-Chloro-phenyl)-N-(2-hydroxy-benzylidene-hydrazinocarbonylmethyl)-benzenesulfonamide] | 750 nM
CCOc1ccc(S(=O)(=O)N(CC(=O)N2CCc3ccccc3C2)c2ccc(C)cc2)cc1 [N-[2-(3,4-Dihydro-1H-isoquinolin-2-yl)-2-oxo-ethyl]-4-ethoxy-N-p-tolyl-benzenesulfonamide] | 375 nM
C/C(=N\NC(=O)CN(c1ccc(Br)cc1)S(=O)(=O)c1ccccc1)c1ccccc1O [drawing 134, N-(4-Bromo-phenyl)-N-[1-(2-hydroxy-phenyl)-ethylidenehydrazinocarbonylmethyl]-benzenesulfonamide] | 391 nM
C/C(=N\NC(=O)CN(c1ccc(Br)cc1)S(=O)(=O)c1ccccc1)c1ccccc1O [drawing 139, N-(4-Bromo-phenyl)-N-[1-(2-hydroxy-phenyl)-ethylidene-hydrazinocarbonylmethyl]-benzenesulfonamide] | 800 nM
